Reference: US20230140290A1, “SALICYLAMIDE DERIVATIVES AND RELATED METHODS OF MAKING” (THE BOARD OF REGENTS OF THE UNIVERSITY OF TEXAS SY, priority 2020, published 2023)

Assays:
A549 cells = assay: Cytotoxicity assay (AlamarBlue); settings: read-out: CC50 (μM), cytotoxic concentration 50%; A549 cell line, 48 h
Protocol: Cytotoxicity Assay. The cytotoxicity of the compounds was analyzed by commercial kit AlamarBlue® (Invitrogen, Ref. DAL1025). A549 cells at a density of 5×10^3 cells per well in 96-well plates were seeded. […] Cells were then incubated at 37° C. for 48 h following the kit protocol. The cytotoxic concentration 50 (CC50) value was obtained using the statistical package GraphPad Prism. This assay was performed in duplicate.

HAdV5-GFP = assay: Plaque assay (inhibition of HAdV plaque formation); format: cell-based, HAdV-5; settings: for Selectivity index (SI): ratio of CC50 to IC50 in plaque assay; for inhibition at 10 µM: read-out: Plaque Assay (%) Inhibition (10 μM); for IC50: read-out: Plaque Assay IC50 (μM), HAdV5-GFP, low MOI, 293β5 cell line
Protocol: Plaque Assay. […] When cells reached 80-90% confluency, they were infected with HAdV5-GFP (0.06 vp/cell) and rocked for 2 h at 37° C. After the incubation the inoculum was removed, and the cells were washed once with PBS.
Plaque Assay. Compounds were tested using low MOI infections (0.06 vp/cell) and at concentrations of 10 μM and in a dose-response assay ranging from 10 to 0.3 μM in a plaque assay. […] When cells reached 80-90% confluency, they were infected with HAdV5-GFP (0.06 vp/cell) and rocked for 2 h at 37° C. After the incubation the inoculum was removed, and the cells were washed once with PBS. […] The mixture also contained the compounds in concentrations ranging from 10 to 0.3 μM.

Row | SMILES | CC50 (A549 cells) | Selectivity index (SI) (HAdV5-GFP) | inhibition at 10 µM (HAdV5-GFP) | IC50 (HAdV5-GFP)
1 | O=C(Nc1cc(C(F)(F)F)cc(C(F)(F)F)c1)c1cc(Cl)ccc1O [Compound 16, N-(3,5-Bis(trifluoromethyl)phenyl)-5-chloro-2-hydroxybenzamide] | 4.1 µM | 68.3 | 100% | 0.06 µM
2 | O=C(NCc1ccc(C(F)(F)F)c(F)c1)c1cc(Cl)ccc1O [Compound 36, 5-Chloro-N-(3-fluoro-4-(trifluoromethyl)benzyl)-2-hydroxybenzamide] | 22.3 ± 7.2 µM |  | 99 ± 1.5% | 1.4 ± 0.02 µM
3 | O=C(Nc1ccc(NCc2ccc(Cl)cc2)cc1Cl)c1cc(Cl)ccc1O [Compound 96, 5-Chloro-N-(2-chloro-4-((4-chlorobenzyl)amino)phenyl)-2-hydroxybenzamide] | 59.7 ± 0.3 µM | 49.7 | 100% | 1.2 ± 0.01 µM
4 | O=C(Cc1cc(Cl)ccc1O)Nc1cc(F)cc(C(F)(F)F)c1 [Compound 53, 2-(5-Chloro-2-hydroxyphenyl)-N-(3-fluoro-5-(trifluoromethyl)phenyl)acetamide] | 23.7 ± 1.5 µM | 4.8 | 91 ± 3.6% | 4.92 µM
5 | CC(C)[C@H](NC(=O)c1cc(Cl)ccc1O)C(=O)Nc1cc(C(F)(F)F)cc(C(F)(F)F)c1 [Compound 65, (S)—N-(1-((3,5-Bis(trifluoromethyl)phenyl)amino)-3-methyl-1-oxobutan-2-yl)-5-chloro-2-hydroxybenzamide] | 30.9 µM | 77.4 | 99.5 ± 0.7% | 0.4 µM
6 | O=C(NCc1ccc(C(F)(F)F)cc1F)c1cc(Cl)ccc1O [Compound 37, 5-Chloro-N-(2-fluoro-4-(trifluoromethyl)benzyl)-2-hydroxybenzamide] | 45.6 ± 7.3 µM |  | 98.8 ± 0.8% | 1.32 ± 0.04 µM
7 | CC(C)[C@H](NC(=O)c1cc(Cl)ccc1O)C(=O)Nc1ccc(NC2CCCC2)cc1Cl [Compound 147, (S)-5-chloro-N-(1-((2-chloro-4-(cyclopentylamino)phenyl)amino)-3-methyl-1-oxobutan-2-yl)-2-hydroxybenzamide] | 111 ± 8.4 µM | 28.9 | 99.5 ± 0.7% | 3.83 ± 0.42 µM
8 | CC(C)Nc1ccc(NC(=O)c2cc(Cl)ccc2O)c(Cl)c1 [Compound 81, 5-Chloro-N-(2-chloro-4-(isopropylamino)phenyl)-2-hydroxybenzamide] | 11 ± 1.4 µM | 12.5 | 100% | 0.88 µM
9 | CN(C)c1ccc(CNc2ccc(NC(=O)c3cc(Cl)ccc3O)c(Cl)c2)cc1 [Compound 102, 5-Chloro-N-(2-chloro-4-((4-(dimethylamino)benzyl)amino)phenyl)-2-hydroxybenzamide] | 24.5 ± 3.5 µM | 9.0 | 100% | 2.73 ± 0.26 µM
10 | CCN(CC)c1ccc(NC(=O)c2cc(Cl)ccc2O)c(Cl)c1 [Compound 90, 5-Chloro-N-(2-chloro-4-(diethylamino)phenyl)-2-hydroxybenzamide] | 55.5 ± 10.2 µM | 64.5 | 100% | 0.86 ± 0.19 µM
11 | O=C(Nc1cc([N+](=O)[O-])ccc1F)c1cc(Cl)ccc1O [Compound 12, 5-Chloro-N-(2-fluoro-5-nitrophenyl)-2-hydroxybenzamide] | 8.1 ± 3.2 µM | 26.2 | 100% | 0.31 µM
12 | O=C(NCc1ccc(C(F)(F)F)cc1)c1cc(Cl)ccc1O [Compound 42, 5-Chloro-2-hydroxy-N-(4-(trifluoromethyl)benzyl)benzamide] | 23.9 ± 9.2 µM | 9.2 | 99.6 ± 0.2% | 2.59 ± 0.42 µM
13 | O=C(NCc1ccc(Cl)cc1)c1cc(Cl)ccc1O [Compound 38, 5-Chloro-N-(4-chlorobenzyl)-2-hydroxybenzamide] | 27.1 ± 1.1 µM | 7.6 | 97.4 ± 3.7% | 3.57 ± 1.43 µM
14 | O=C(Nc1ccc(N(CC2CC2)CC2CC2)cc1Cl)c1cc(Cl)ccc1O [Compound 92, N-(4-(Bis(cyclopropylmethyl)amino)-2-chlorophenyl)-5-chloro-2-hydroxybenzamide] | 12.8 ± 4.2 µM | 20.7 | 100% | 0.62 ± 0.01 µM
15 | O=C(Nc1ccc(NCc2ccccc2)cc1Cl)c1cc(Cl)ccc1O [Compound 94, N-(4-(Benzylamino)-2-chlorophenyl)-5-chloro-2-hydroxybenzamide] | 19.7 ± 2.8 µM | 7.8 | 100% | 2.52 ± 0.01 µM
16 | O=C(Nc1ccc(NCC2CC2)cc1Cl)c1cc(Cl)ccc1O [Compound 85, 5-Chloro-N-(2-chloro-4-((cyclopropylmethyl)amino)phenyl)-2-hydroxybenzamide] | 14.4 µM | 10.4 | 100% | 1.38 µM
17 | CC(C)CNc1ccc(NC(=O)c2cc(Cl)ccc2O)c(Cl)c1 [Compound 82, 5-Chloro-N-(2-chloro-4-(isobutylamino)phenyl)-2-hydroxybenzamide] | 60 ± 15 µM | 67.4 | 100% | 0.89 µM
18 | CC1(ON(c2ccc(NC(=O)c3cc(Cl)ccc3O)c(Cl)c2)C2(C)CCCC2)CCCC1 [Compound 93, 5-Chloro-N-(2-chloro-4-((1-methylcyclopentyl)((1-methylcyclopentyl)oxy)amino)phenyl)-2-hydroxybenzamide] | 18 µM | 24.3 | 100% | 0.74 µM
19 | C[C@H](NC(=O)c1cc(Cl)ccc1O)c1ccccc1 [Compound 47, (S)-5-Chloro-2-hydroxy-N-(1-phenylethyl)benzamide] | 199 µM | 78.5 | 100% | 2.54 µM
20 | O=C(N[C@@H](Cc1ccccc1)C(=O)Nc1cc(C(F)(F)F)cc(C(F)(F)F)c1)c1cc(Cl)ccc1O [Compound 69, (S)—N-(1-((3,5-Bis(trifluoromethyl)phenyl)amino)-1-oxo-3-phenylpropan-2-yl)-5-chloro-2-hydroxybenzamide] | 17.9 µM | 44.9 | 99 ± 1.4% | 0.4 µM
21 | C[C@@H](NC(=O)c1cc(Cl)ccc1O)c1ccc(Cl)cc1 [Compound 48, (R)-5-Chloro-N-(1-(4-chlorophenyl)ethyl)-2-hydroxybenzamide] | 31.1 ± 3.2 µM |  | 100% | 
22 | O=C(Nc1ccc(NCc2cc(F)cc(C(F)(F)F)c2)cc1Cl)c1cc(Cl)ccc1O [Compound 106, 5-Chloro-N-(2-chloro-4-((3-fluoro-5-(trifluoromethyl)benzyl)amino)phenyl)-2-hydroxybenzamide] | 30.9 ± 4.8 µM | 26.7 | 100% | 1.16 ± 0.13 µM
23 | O=C(Nc1ccc(NCc2cc(Cl)cc(Cl)c2)cc1Cl)c1cc(Cl)ccc1O [Compound 104, 5-Chloro-N-(2-chloro-4-((3,5-dichlorobenzyl)amino)phenyl)-2-hydroxybenzamide] | 13.3 ± 7.6 µM | 9.3 | 100% | 1.43 ± 0.17 µM
